Converted amounts (≈) assume the structure as drawn.
Tests used:
[1] = system: Enterococcus faecalis 26; assay: microbe, parasite or virus in culture; type: cell-based; conditions: Enterococcus faecalis, 26, 16 h, read-out: MIC Enterococcus faecalis 26
Procedure, shortened: (§1)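 MIC = lowest peptide concentration with no visible growth; LB broth microdilution, n = 2. Inoculum: overnight culture diluted 5000× (S. aureus 10000×). Peptides serially diluted 2-fold, 64–0.125 µg mL^−1 in the broth added to cells.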

[2] = system: Enterococcus faecalis 28; assay: microbe, parasite or virus in culture; type: cell-based; conditions: Enterococcus faecalis, 28, 16 h, read-out: MIC Enterococcus faecalis 28
Procedure, shortened: as §1

[3] = system: Enterococcus faecalis ATCC 29212; assay: microbe, parasite or virus in culture; type: cell-based; conditions: Enterococcus faecalis, ATCC29212, 16 h, read-out: MIC Enterococcus faecalis ATCC 29212
Procedure, shortened: as §1

[4] = system: Enterococcus faecium 35682; assay: microbe, parasite or virus in culture; type: cell-based; conditions: Enterococcus faecium, 35682, 16 h, read-out: MIC Enterococcus faecium 35682
Procedure, shortened: as §1

[5] = system: Staphylococcus aureus ATCC 25923; assay: microbe, parasite or virus in culture; type: cell-based; conditions: Staphylococcus aureus, ATCC25923, 16 h, read-out: MIC Staphylococcus aureus ATCC 25923
Procedure, shortened: as §1

[6] = system: Staphylococcus aureus ATCC 6538; assay: microbe, parasite or virus in culture; type: cell-based; conditions: Staphylococcus aureus, ATCC6538, 16 h, read-out: MIC Staphylococcus aureus ATCC 6538
Procedure, shortened: as §1

[7] = system: Staphylococcus aureus Newman; assay: microbe, parasite or virus in culture; type: cell-based; conditions: Staphylococcus aureus, NEWMAN, 16 h, read-out: MIC Staphylococcus aureus Newman
Procedure, shortened: as §1

[8] = system: Staphylococcus aureus USA300; assay: microbe, parasite or virus in culture; type: cell-based; conditions: Staphylococcus aureus, USA300, 16 h, read-out: MIC Staphylococcus aureus USA300
Procedure, shortened: as §1

[9] = system: Streptococcus mutans ATCC 25175; assay: microbe, parasite or virus in culture; type: cell-based; conditions: Streptococcus mutans, ATCC25175, 16 h, read-out: MIC Streptococcus mutans ATCC 25175
Procedure, shortened: as §1

[10] = system: Streptococcus pyogenes ATCC 19615; assay: microbe, parasite or virus in culture; type: cell-based; conditions: Streptococcus pyogenes, ATCC19615, 16 h, read-out: MIC Streptococcus pyogenes ATCC 19615
Procedure, shortened: as §1

[11] = system: Mycobacterium smegmatis mc2155; assay: microbe, parasite or virus in culture; conditions: Mycolicibacterium smegmatis, MC2155, read-out: MIC Mycobacterium smegmatis mc2155
[12] = system: fungi; conditions: Figure S20, known peptide; cited from earlier work

Compound: CN[C@H](CC(C)C)C(=O)N[C@H]1C(=O)N[C@@H](CC(N)=O)C(=O)N[C@H]2C(=O)N[C@H]3C(=O)N[C@H](C(=O)N[C@H](C(=O)O)c4cc(O)cc(O)c4-c4cc3ccc4O)[C@H](O)c3ccc(c(Cl)c3)Oc3cc2cc(c3O[C@@H]2O[C@H](CO)[C@@H](O)[C@H](O)[C@H]2O[C@H]2C[C@](C)(N)[C@H](O)[C@H](C)O2)Oc2ccc(cc2Cl)[C@H]1O [Vancomycin, reference compound]
- MIC [1]: 1 µg/mL (≈ 0.69 µM)
- MIC [2]: > 64 µg/mL
- MIC [3]: 2 µg/mL (≈ 1.38 µM)
- MIC [4]: > 64 µg/mL
- MIC [5]: 1 µg/mL (≈ 0.69 µM)
- MIC [6]: 1 µg/mL (≈ 0.69 µM)
- MIC [7]: 0.5 µg/mL (≈ 0.345 µM)
- MIC [8]: 1 µg/mL (≈ 0.69 µM)
- MIC [9]: 2 µg/mL (≈ 1.38 µM)
- MIC [10]: 0.5 µg/mL (≈ 0.345 µM)
- MIC [11]: > 64 µg/mL

Compound: Keanumycin A
- anti-fungal activity [12]: Pot ent anti-fungal activity
